Assays:
[1] = biological target: T1, Human pol κ (residues 19–526) (Homo sapiens, UniProt Q9UBT6); assay: qHTS fluorescence-based DNA strand displacement assay; format: biochemical; details: fluorescence strand displacement, 10 nM pol κ, 50 nM substrate, 100 µM dTTP; read-out: qHTS: IC50
T1 construct: Human pol κ (residues 19–526) was purified as previously reported; made in house
T1 sequence (Q9UBT6 19-526): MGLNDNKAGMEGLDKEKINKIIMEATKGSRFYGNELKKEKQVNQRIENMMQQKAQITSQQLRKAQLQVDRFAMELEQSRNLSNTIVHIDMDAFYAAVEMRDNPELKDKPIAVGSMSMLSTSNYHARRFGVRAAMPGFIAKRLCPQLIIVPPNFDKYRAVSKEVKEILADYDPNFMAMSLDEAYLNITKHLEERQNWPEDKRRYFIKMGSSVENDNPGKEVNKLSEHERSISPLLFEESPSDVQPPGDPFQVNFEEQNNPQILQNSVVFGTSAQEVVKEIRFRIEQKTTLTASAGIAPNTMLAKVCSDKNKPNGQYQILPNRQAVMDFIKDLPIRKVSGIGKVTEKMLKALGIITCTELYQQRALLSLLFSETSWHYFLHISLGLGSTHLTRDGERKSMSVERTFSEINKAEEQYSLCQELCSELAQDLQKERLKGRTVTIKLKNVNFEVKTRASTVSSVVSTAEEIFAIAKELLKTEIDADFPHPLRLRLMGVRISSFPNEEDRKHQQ
Protocol: The substrate used in qHTS was made by the annealing of unlabeled oligodeoxynucleotide primer (5′-TCACCCTCGTACGACTC-3′) and TAMRA-labeled reporter strand (5′-TTTTTTTTTTGC-6-TAMRA-3′) to oligodeoxynucleotide template labeled with BHQ-2 (5′-BHQ-2-[…]-3′) as originally described by Dorjsuren et al.. The annealing mixture of unlabeled primer, TAMRA-labeled reporter, and BHQ-2-labeled template in buffer containing 50 mM Tris-HCl, pH 8.0, 100 mM NaCl, and 5 mM MgCl2 was heated at 95°C for 5 min and allowed to cool gradually to room temperature. The substrate was then stored at −20°C as 50 µM stock.
qHTS was performed in 50 mM Tris-HCI, pH 8.0, 40 mM NaCl, 1 mM MgCl2, 0.01% Tween-20, 2 mM DTT, and 100 µM dTTP. 3 µL of reagents (buffer as negative control and pol κ in the remaining plate at 10 nM final concentration) were dispensed by Flying Reagent Dispenser™ (FRD) (Beckman Coulter, Inc., Fullerton, CA) into a 1,536-well plate. Compounds were delivered as 23 nL in DMSO solution via pintool transfer; vehicle-only control consisted of 23 nL DMSO. The plate was incubated for 15 min at room temperature, and then 1 µL of substrate (50 nM final concentration) was added to initiate the reaction. The plate was immediately transferred into ViewLux reader for kinetic fluorescence data collection.
To lay the foundation for the methodologies to discover and characterize inhibitors of pol κ, we used a fluorescent reporter strand displacement assay (Figure 1 and [27]). The library of bioactive small molecules was tested as seven-point dilution series, with the final concentrations ranging from 2.9 nM to 57 µM.

Human pol κ [2] = biological target: T2, Human pol κ (Homo sapiens, UniProt Q9UBT6); assay: Radioactive gel-based primer extension assay on non-damaged DNA, pol κ; format: biochemical; details: primer extension, non-damaged DNA, 0.25 nM pol κ; average ± standard error, three experiments; read-out: gel: non-damaged: IC50
T2 construct: Human pol κ (residues 19–526) was purified as previously reported; made in house
T2 sequence (Q9UBT6 19-526): T1 sequence (Q9UBT6 19-526)
Protocol: (§1) The reactions with pol κ, pol η, and pol ι were carried out in the buffers containing 25 mM Tris-HCl, pH 7.5, 8 mM MgCl2, 10% glycerol, 100 µg/mL bovine serum albumin, and 5 mM DTT. Buffers for pol δ reactions contained 40 mM Hepes-KOH, pH 6.8, 10% glycerol, 200 µg/mL bovine serum albumin, 1 mM DTT, and 8 mM MgCl2. Final concentration of pol κ, pol η, pol ι, or pol δ in the reaction was 0.25 nM, 1 nM, 2.5 nM, or 4 nM, respectively. In this assay, a polymerase was preincubated with the compound for 15 min at room temperature. Primer extensions were then initiated by the addition of DNA substrate at final concentration of 5 nM and carried out for 30 min at room temperature in the presence of 100 µM dCTP and dGTP. The reactions were terminated by the addition of an equal volume of a dye solution containing 95% (v/v) formamide, 10 mM EDTA, 0.03% (w/v) xylene cyanol, and 0.03% (w/v) bromphenol blue. Reaction products were separated through a 15% acrylamide gel containing 8 M urea and visualized with a PhosphorImager screen. The ratio of extended primer to the total amount of primer was measured using ImageQuant 5.2 software to calculate the percentage of primer extended. IC50 values were determined by fitting the data to variable slope four-parameter equations using GraphPad Prism 5.

Human pol κ [3] = biological target: T2, Human pol κ; assay: Radioactive gel-based primer extension (TLS) past acrolein-derived ring-opened reduced form of γ-HOPdG, pol κ; format: biochemical; details: primer extension, adducted DNA, 0.25 nM pol κ; average ± standard error, three experiments; read-out: gel: ring-opened reduced form of γ-HOPdG: IC50
Protocol: as §1
The primary role of pol κ is to bypass DNA lesions. Therefore, it was critical to establish the assays to investigate the capability of these compounds to inhibit lesion bypass activity of pol κ. Radioactive gel-based primer extension reactions were carried out using a DNA substrate containing a site-specific acrolein-derived ring-opened reduced form of γ-HOPdG, a lesion that pol κ can efficiently bypass in vitro [13].

[4] = system: double-stranded DNA ladder; assay: DNA intercalation assay (agarose gel shift of DNA ladder); format: binding; details: 0.75 or 3 nmol compound with 1.5 nmol DNA, 1% agarose gel
Protocol: Candesartan cilexetil or ethidium bromide was incubated with 1.5 nmol of double-stranded DNA ladder for 15 min at room temperature in the buffer containing 50 mM Tris-HCl, pH 8.0, 0.01% Tween-20, 1 mM DTT, and 40 mM NaCl. The reaction mixtures were run on 1% agarose gel and stained with ethidium bromide (0.5 µg/ml) for visualization.
Figure 7 The non-DNA-intercalating property of candesartan cilexetil. Candesartan cilexetil or ethidium bromide was incubated with double-stranded DNA ladder, and the reaction products were run on 1% agarose gel and stained with ethidium bromide. Lane 1: No compound. Lane 2: 0.75 nmol of candesartan cilexetil was incubated with 1.5 nmol DNA. Lane 3: 3 nmol of candesartan cilexetil was incubated with 1.5 nmol DNA. Lane 4: 0.75 nmol of ethidium bromide was incubated with 1.5 nmol DNA. Lane 5: 3 nmol of ethidium bromide was incubated with 1.5 nmol DNA.

XP30RO cells (XP-V) [5] = assay: Cell survival assay, CellTiter-Glo Luminescent Cell Viability Assay, with or without UV; format: cell-based, Human; details: CellTiter-Glo (ATP content); 24 µM, UV 1.5, 4.5 or 7.5 J/m^2
Source text: Supplementary file pone.0045032.s001.tif: Figure S1 Effect of candesartan cilexetil on UV-induced cytotoxicity using CellTiter-Glo Luminescent Cell Viability Assay. […] I: candesartan cilexetil. (TIF) Click here for additional data file.

XP30RO cells (XP-V) [6] = assay: Cell survival assay, crystal violet, with or without UV
Protocol: Cell survival assays were carried out using crystal violet assays and CellTiter-Glo Luminescent Cell Viability Assays. In crystal violet assays, XP30RO cells were plated into clear 96-well plates at a density of 8000 cells/mL and incubated overnight at 37°C, 5% CO2. The cells were treated with (1) inhibitor alone for 6 h or (2) UV alone or (3) inhibitor alone for 6 h followed by UV irradiation. After 2 days, cells were fixed with 4% paraformaldehyde and stained with 0.5% crystal violet dye. The dye was dissolved in 10% acetic acid and absorbance measurement was taken at OD595 nm with Infinite® M200 plate reader (Tecan, Durham, NC). For the CellTiter-Glo Luminescent Cell Viability Assays, the same procedures as crystal violet assays were used except that white/clear bottom 96-well plates were used and cell viability was measured following manufacturer's recommendations.
XP30RO cells were treated with 24 µM of candesartan cilexetil alone, UV alone at 1.5 J/m^2, 4.5 J/m^2, or 7.5 J/m^2, or in combination. Percent survival was calculated by normalizing the data using the cell survival of untreated cells. The data were obtained from three independent experiments.

## CCOc1nc2cccc(C(=O)OC(C)OC(=O)OC3CCCCC3)c2n1Cc1ccc(-c2ccccc2-c2nnn[nH]2)cc1 (stereo not shown) [candesartan cilexetil, Candesartan cilexetil]
[1]
  IC50: 32 µM
Human pol κ [2]
  IC50: 9.2 ± 0.5 µM
Human pol κ [3]
  IC50: 11 ± 1.5 µM
[4]
  DNA migration pattern (intercalation): no difference in DNA migration pattern
XP30RO cells (XP-V) [5]
  Effect on UV-induced cytotoxicity: comparable results were obtained
XP30RO cells (XP-V) [6]; 24 µM, no UV
  Cell survival with compound alone: cell survival was not altered
XP30RO cells (XP-V) [6]; crystal violet, inhibitor 6 h then UV 1.5, 4.5 or 7.5 J/m^2, candesartan cilexetil 24 µM
  Effect on UV-induced cytotoxicity: potentiated the cytotoxicity of UV at higher UV doses

From article PMC3466269, “A Comprehensive Strategy to Discover Inhibitors of the Translesion Synthesis DNA Polymerase κ” (PLoS ONE, 2012)
